US20230189864A1, “NON-THERAPEUTIC METHODS FOR MAINTAINING A HEALTHY BODY WEIGHT OR LOSING BODY WEIGHT” (FrieslandCampina Nederland B.V., priority 2019, published 2023)

Legend:
[1] = system: pooled fecal microbiota from healthy lean subjects; assay: TIM-2 in vitro fermentation model, SCFA analysis; format: cell-based, human
Source text: The in vitro fermentation studies were done using the TIM-2 model. This is a validated, dynamic, computer-controlled model that simulates the human colon, mimicking body temperature, lumen pH, absorption of water and microbial metabolites through a semipermeable membrane inside the model, mixing and transporting the intestinal contents with peristaltic movements, using an anaerobic microbiota from human origin, it corresponds basically to the model as described in Minekus, M., et al. Appl. Microbiol. Biotechnol. 1999 53, 108 --- 114. doi: 10.1007/ s002530051622 and Kortman et al., Frontiers in Microbiology 2016, 6, 1481.
Characteristics of the movements of the contents in the TIM-2 system were simulated using an increase of the pH and peristaltic movements of the contents in the system using peristaltic pumps as described in Minekus, M (1998. Development and validation of a dynamic model of the gastrointestinal tract. PhD thesis, Delft University of Technology, The Netherlands).
SCFA analysis was performed at Brightlabs B.V., Venlo, The Netherlands), according to (Sáyago-Ayerdi SG, et al. Food Research International, E-pub date 13 Dec. 2017; Sayago Ayerdi et al Food Research International 118 (2019) 89-95).
Pooled fecal microbiota samples from 11 healthy lean subjects not suffering from any metabolic disease was used to inoculate the TIM-2 in vitro fermentation model.
The fecal microbiota was freshly sampled in and stored directly (within 2 h) on ice and under anaerobic conditions. Next, in an anaerobic cabinet, samples were diluted 1:1 with dialysate, and pooled at approximately equal weight, after which glycerol was added (to a final concentration of 12-13 w/w) and aliquots (30 ml/tube) were frozen in liquid nitrogen and stored at -80 ℃. […]
Samples (1 mL) were taken for SCFA analysis after 1, 2, 4, 6, 8 and 24 h after test product insertion; cumulative absolute amounts of SCFA were determined. […] The acids were detected using suppressed conductivity detection. […]

[2] = addition to infant formula; cited from earlier work
[3] = overweight men, cited from earlier work
[4] = TIM-2, microbiota of lean subjects (18.5 kg/m^2 ≤ BMI < 25 kg/m^2), 8-24 h, represents distal colon, single shot 7.5 g 2′-FL (± 7.5 g RS)
[5] = administered in the distal part of the colon

Molecule	SCFA levels and in particular acetate levels in the distal colon (in words) ([1]; TIM-2, lean subjects' microbiota)	Acetate produced between 8 and 24 hours after insertion of the test product [1, 4] [mmol]	SCFA produced between 8 and 24 hours after insertion of the test product [1, 4] [mmol]	safety and tolerance [2]	circulating plasma concentrations of peptide YY (PYY) [3, 5]	fat oxidation [3, 5]	energy expenditure or substrate oxidation ([3]; administered in the proximal colon)
2′-Fucosyllactose [2′-FL w/o RS]	increased	12	21	safe and well-tolerated			
CC(=O)[O-].[Na+] [sodium acetate]					significantly increased	significantly increased	no effect
